Experiments:
[1] = bolus of 600 mg of 5FU, cited from earlier work
[2] = Release kinetics of the drug by micro-dialysis (QuixSep) into PBS pH 7.4; type: physicochemical; details: 5FU solution in PBS at 200 μg/ml; up to 60 minutes; ambient temperature
Description: In particular, as a receiving step a PBS (phosphate buffered saline) at pH=7.4 was analysed. The method used is micro-dialysis by means of a system known as QuixSep® with a Spectra/pore membrane, MWCO=3500 Da.
The system was maintained under constant magnetic stirring, at ambient temperature, taking samples of the receiving step at predetermined times and re-integrating the collected volume.
The samples were analysed and the values obtained were plotted considering the single collections and re-integrations from the preceding step, so as to obtain a dissolution/release profile.
The data relating to the release percentage were calculated on the basis of a drug loading determined by LC-MS/MS analysis.

dissolution of the free drug [2]: 70%
Compound: O=c1[nH]cc(F)c(=O)[nH]1 [Batch 5FU, 5-fluorouracil]
plasmatic concentration of 5FU ([1]; after 25 minutes): 10 µg/mL | Cmax ([1]; body surface of 1.7): about 50 μg/ml

Reference: US10842756B2 (BIOVIIIX S.R.L., priority 2015, dated 2020)
